Measured values taken from paper PMC10914731, “Homo-BacPROTAC-induced degradation of ClpC1 as a strategy against drug-resistant mycobacteria” (Nature Communications, 2024).
≈ marks a conversion by molar mass, not a printed value. Where “and” joins values, the source holds several entries; their conditions need not be identical. Identical values can stand only once. Like-named read-outs stand apart in the source and are kept apart here. *1 amine or outer side, *2 acyl side, *3 side chain or, on linkers, in order; H or OH if unused. Where a SMILES comes first, the peptide text is derived from it. [ ]: non-standard residue; d: D form. X1 = C#CCn1cc(C[C@H](N[*:1])C(=O)[*:2])c2ccccc21; NMeLeu(5-OH,4R) = CN[C@@H](C[C@@H](C)CO)C(=O)O; Phe(βR-OMe) = CO[C@H](c1ccccc1)[C@H](N)C(=O)O; Trp(1-Me) = Cn1cc(C[C@H](N)C(=O)O)c2ccccc21; NMeL = CN[C@@H](CC(C)C)C(=O)O; Pra = C#CC[C@H](N)C(=O)O

Columns and labels:
[1] = in vitro; details: human
Outline: (§1)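 Values are bidirectional Caco-2 apparent permeabilities, P(A−B) and P(B−A), given in 10^-6 cm s-1. The efflux ratio divides P(B−A) by P(A−B), and intrinsic permeability averages the two directions.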

[2] = test system: Caco-2 monolayers; experiment: in vitro
Outline: as §1

[3] = Hepatocyte stability, mice; format: in vitro ADME
Outline: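 Clearance, expressed as % of liver blood flow (% Qh), derived from parent-compound half-life by the well-stirred model, with HPLC-MS/MS quantitation after acetonitrile quench. Test compound at 1 µM final added to mouse hepatocyte suspension in 50% serum after 15–30 min acclimation at 37 °C; six samples over up to 6 h.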

[4] = format: in vitro ADME, Human
[5] = test system: Mtb # 8673; experiment: microbe, parasite or virus in culture; format: cell-based
[6] = test system: Enterococcus faecium; experiment: MIC ESKAPES panel, Enterococcus faecium; format: cell-based
Protocol: Minimum inhibitory concentration (MIC) against ESKAPES panel of Gram positive and Gram negative pathogens (Enterococcus faecium, Staphylococcus aureus, Klebsiella pneumoniae, Acinetobacter baumannii, Pseudomonas aeruginosa, Enterobacter cloacae and Salmonella typhimurium [ESKAPES panel]) were determined at the FNDR by the standard broth dilution method [CLSI, M100]. […] Mueller Hinton broth (MHB) medium was used to grow ESKAPES panel strains. The individual cultures were added as 200 μL (inoculum of 3–7 × 10^5 cfu/ml) to the respective assay plates in each well to all columns, except the media control (200 μL of medium). […] The assay plates were incubated at 37 °C, and the results were noted on the 2nd day as turbidometric readout. The clear wells indicated inhibition of growth, while the turbid wells indicated uninhibited growth.

[7] = test system: Msm #607; experiment: Minimum bactericidal concentration (MBC), Msm #607; format: cell-based, Mycobacterium smegmatis; details: for MBC: Mycolicibacterium smegmatis
[8] = test system: Mtb H37Rv in THP-1 macrophages; experiment: Intracellular MIC assay in THP-1 macrophages; format: cell-based, Mycobacterium tuberculosis; set-up: Emax: unit not given here
[9] = Mycobacterium tuberculosis, mean, n = 2 well replicates
[10] = Mycobacterium tuberculosis, single well replicates
[11] = Enterococcus faecium, Gram positive, n = 3 well replicates
[12] = Enterococcus faecium, Gram-Positive Bacteria, replicates 1-3
[13] = Gram-Positive Bacteria, replicates 1-3
[14] = ATCC607, read-out: MBC (from Set 3) Msm ATCC 607
[15] = read-out: MBC Msm #607, individual example
[16] = 0.781µM, Day 4, well replicates
[17] = 3.125µM, Day 4, well replicates
[18] = 3.125µM, Day 7, well replicates
[19] = Caco-2, Caco-2 permeability P (A-B), apical to basolateral
[20] = mean value of P(A−B) and P(B−A)
[21] = single well replicates, listed as 8 (UdSBAI-0545)
[22] = single well replicates, listed as 12 (UdSBI-4377)

Row | SMILES | Caco-2 Int. Perm ([2]; human, Caco-2) | Hepatocyte Mice ([3]; mouse, pH 7.4) [%Qh] | Hepatocyte Human ([4]; human, pH 7.4) [%Qh] | MIC [5, 9] | MIC [5, 10] | MIC ([5]; single well replicates) [µM] | MIC Mtb # 8673 ([5]; single well replicates) [µg/mL] | MIC [6, 11] [µM] | MIC [6, 12] | MIC [6, 13] [µM] | MBC [7, 14] | MBC [7, 15] | Emax [8] | intracellular viable mycobacteria [8, 16] | intracellular viable mycobacteria [8, 17] | intracellular viable mycobacteria [8, 18] | Papp A→B [1, 19] [×10⁻⁶ cm/s] | Caco-2 Int. Perm [2, 20] | Hepatocyte Mice ([3]; clearance in hepatocytes) [%Qh] | Hepatocyte Human ([4]; clearance in hepatocytes) [%Qh] | other results
1 | C#CCn1cc(C[C@@H]2NC(=O)[C@H](C(C)C)NC(=O)[C@H](CC(C)C)N(C)C(=O)[C@H](C(C)C)NC(=O)[C@H]([C@H](OC)c3ccccc3)NC(=O)[C@H](C)NC(=O)[C@H](C[C@@H](C)CO)N(C)C2=O)c2ccccc21 [Compound 5] (cyclo(A[Phe(βR-OMe)]V[NMeL]V[X1][NMeLeu(5-OH,4R)])) | 12.1 | 58 | 12 | 0.2 µM and 0.2 µg/mL | 0.19 µM and 0.18 µg/mL | 0.19 (≈ 0.179 µg/mL) | 0.18 (≈ 0.191 µM) | > 50 | > 47 µg/mL | >50 | > 47 µg/mL and > 50 µM | > 50 µM and > 47.1 µg/mL | 1.14 | 4.46 log10 cfu/ml and 4.51 log10 cfu/ml | 4.19 log10 cfu/ml and 4.2 log10 cfu/ml | 4.96 log10 cfu/ml | – | – | – | – | efflux ratio ([1]; Caco-2): 20.4; Papp A→B ([1]; Caco-2, CACO permeability PEAB): 0.95 ×10⁻⁶ cm/s; Papp B→A ([1]; Caco-2, CACO permeability PEBA): 19 ×10⁻⁶ cm/s; Papp A→B ([1]; Caco-2, Caco-2 permeability P (A-B)): 1.1 ×10⁻⁶ cm/s; Papp B→A ([1]; Caco-2, Caco-2 permeability P (B-A)): 23 ×10⁻⁶ cm/s; Influence of N-methylation on permeability ([2]; human, Caco-2): 9.3; Hepatocyte Stability Human QH ([4]; human, pH 7.4): 12.386%; intracellular viable mycobacteria ([8]; 0.195µM, Day 4, well replicates): 5.51 log10 cfu/ml; intracellular viable mycobacteria ([8]; 0.195µM, Day 7, well replicates): 5.68 log10 cfu/ml
2 | CO[C@H](c1ccccc1)[C@@H]1NC(=O)[C@H](C)NC(=O)[C@H](C[C@@H](C)CO)N(C)C(=O)[C@H](Cc2cn(Cc3cn(CCOCCn4cc(Cn5cc(C[C@@H]6NC(=O)[C@H](C(C)C)NC(=O)[C@H](CC(C)C)N(C)C(=O)[C@H](C(C)C)NC(=O)[C@H]([C@H](OC)c7ccccc7)NC(=O)[C@H](C)NC(=O)[C@H](C[C@@H](C)CO)N(C)C6=O)c6ccccc65)nn4)nn3)c3ccccc23)NC(=O)[C@H](C(C)C)NC(=O)[C@H](CC(C)C)N(C)C(=O)[C@H](C(C)C)NC1=O [Compound 6] | – | – | – | – | – | – | – | – | – | – | – | – | – | – | – | – | < 1.7 | 2.1 10-6 cm s-1 | 15 | 12 | Papp A→B ([1]; Caco-2, CACO permeability PEAB, apical to basolateral): < 2.6 ×10⁻⁶ cm/s; Papp B→A ([1]; Caco-2, Caco-2 permeability P (B-A), basolateral to apical): 2.4 ×10⁻⁶ cm/s
3 | COC(c1ccccc1)C1NC(=O)C(C)NC(=O)C(CC(C)CO)N(C)C(=O)C(Cc2cn(Cc3cn(CCOCCOCCOCCOCCn4cc(Cn5cc(CC6NC(=O)C(C(C)C)NC(=O)C(CC(C)C)N(C)C(=O)C(C(C)C)NC(=O)C(C(OC)c7ccccc7)NC(=O)C(C)NC(=O)C(CC(C)CO)N(C)C6=O)c6ccccc65)nn4)nn3)c3ccccc23)NC(=O)C(C(C)C)NC(=O)C(CC(C)C)N(C)C(=O)C(C(C)C)NC1=O (stereo not drawn) [Compound 8] | – | – | – | < 0.1 µM and < 0.2 µg/mL | < 0.1 µM and < 0.21 µg/mL | – | – | > 50 | > 109 µg/mL | – | > 109 µg/mL and > 50 µM | > 50 µM and > 108 µg/mL | 1.27 | 4.88 log10 cfu/ml | 4.56 log10 cfu/ml | 4.31 log10 cfu/ml and 4.3 log10 cfu/ml | – | 0.4 10-6 cm s-1 | 32 | 12 | CACO permeability PEAB ([2]; apical to basolateral): <0.0000027 cm/sec; Caco-2 permeability P (A-B) ([2]; apical to basolateral): < 0.6 10-6 cm s-1; CACO permeability PEBA ([2]; basolateral to apical): <0.000001 cm/sec; Caco-2 permeability P (B-A) ([2]; basolateral to apical): < 0.3 10-6 cm s-1; Hepatocyte Stability Mouse QH [3]: 50.268%; MIC [5, 21]: <0.1 µM; MIC Mtb # 8673 [5, 21]: <0.21 µg/mL; MIC ([6]; Gram-Positive Bacteria, replicates 1-3, listed as 8 (UdSBI-0545)): >50 µM; colony growth after replating (MBC assay) ([7]; Msm #607, up to 50 µM, result in words): growth of colonies could be observed across all tested concentrations; intracellular viable mycobacteria ([8]; 0.19µM, Day 4, well replicates): 5.45 log10 cfu/ml; intracellular viable mycobacteria ([8]; 0.19µM, Day 7, well replicates): 5.56 log10 cfu/ml; intracellular viable mycobacteria ([8]; 0.781µM, Day 7, well replicates): 4.81 log10 cfu/ml; intracellular viable mycobacteria ([8]; 50µM, Day 4, well replicates): 4.3 log10 cfu/ml; intracellular viable mycobacteria ([8]; 50µM, Day 7, well replicates): 3.92 log10 cfu/ml and 3.9 log10 cfu/ml
4 | C#CC[C@@H]1NC(=O)[C@H](CC(C)C)N(C)C(=O)[C@H](C(C)C)NC(=O)[C@H]([C@H](OC)c2ccccc2)NC(=O)[C@H](C)NC(=O)[C@H](C[C@@H](C)CO)N(C)C(=O)[C@H](Cc2cn(C)c3ccccc23)NC1=O [Compound 10] (cyclo(A[Phe(βR-OMe)]V[NMeL][Pra][Trp(1-Me)][NMeLeu(5-OH,4R)])) | – | – | – | 0.4 µM and 0.4 µg/mL | 0.39 µM and 0.36 µg/mL | 0.39 (≈ 0.356 µg/mL) | 0.36 (≈ 0.394 µM) | > 50 | > 45.6 µg/mL | >50 | > 45.6 µg/mL and > 50 µM | > 50 µM and > 45.7 µg/mL | 0.19 | – | – | – | < 0.1 | 7.1 10-6 cm s-1 | 64 | 12 | Papp B→A ([1]; Caco-2, CACO permeability PEBA, basolateral to apical): 19 ×10⁻⁶ cm/s; CACO permeability PEBA ([2]; basolateral to apical): 0.000014 cm/s; Hepatocyte Stability Mouse QH [3]: 64.420%
5 | COC(c1ccccc1)C1NC(=O)C(C)NC(=O)C(CC(C)CO)N(C)C(=O)C(Cc2cn(C)c3ccccc23)NC(=O)C(Cc2cn(CCCCCn3cc(CC4NC(=O)C(CC(C)C)N(C)C(=O)C(C(C)C)NC(=O)C(C(OC)c5ccccc5)NC(=O)C(C)NC(=O)C(CC(C)CO)N(C)C(=O)C(Cc5cn(C)c6ccccc56)NC4=O)nn3)nn2)NC(=O)C(CC(C)C)N(C)C(=O)C(C(C)C)NC1=O (stereo not drawn) [Compound 12] | 0.5 | 15 | 12 | < 0.1 µM and < 0.2 µg/mL | < 0.1 µM and < 0.19 µg/mL | – | – | > 50 | > 99 µg/mL | – | > 99 µg/mL and > 50 µM | – | 0.28 | – | – | – | – | – | – | – | CACO permeability PEAB ([2]; human, Caco-2): 0.00000073 cm/s; CACO permeability PEBA ([2]; human, Caco-2): 0.00000025 cm/s; Caco-2 Efflux ratio ([2]; human, Caco-2): 0.3; Caco-2 permeability P (A-B) ([2]; human, Caco-2): 0.7; Caco-2 permeability P (B-A) ([2]; human, Caco-2): 0.2; MIC [5, 22]: <0.1 µM; MIC Mtb # 8673 [5, 22]: <0.19 µg/mL; MIC ([6]; Gram-Positive Bacteria, replicates 1-3, listed as 12 (UdSBI-4377)): >50 µM; colony growth after replating (MBC assay) [7]: growth of colonies could be observed across all tested concentrations; MBC ([7]; read-out: MBC Msm #607): > 50 µM and > 99 µg/mL
6 | COc1c(N2C[C@@H]3CCCN[C@@H]3C2)c(F)cc2c(=O)c(C(=O)O)cn(C3CC3)c12 [Moxifloxacin, reference compound] | – | – | – | 0.1 µM and 0.1 µg/mL | 0.15 µM and 0.06 µg/mL | 0.15 (≈ 0.0602 µg/mL) | 0.06 (≈ 0.149 µM) | 79.7 | 79.7 µM and 32 µg/mL | – | 0.13 µg/mL and 0.31 µM | 0.3 µM and 0.1 µg/mL | – | – | – | – | – | – | – | – | –
